We go through 4 compounds from article PMC5007854, “β-Nitrostyrenes as Potential Anti-leishmanial Agents” (Frontiers in Microbiology, 2016).

Structures are written as SMILES. In brackets after ≈: the same amount, converted by molar mass. Where two headings read alike, the source gives them in different places.

Assay [1] relates to Escherichia coli ATCC 25922. Put plainly: Broth microdilution antibacterial susceptibility (MIC/MBC). The class given is cell-based. As to conditions: for MIC / MBC: Escherichia coli; for MIC: ATCC25922, 24 h. In short, it runs like this: (§1)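 CLSI broth microdilution: Ca/Mg-supplemented Mueller-Hinton for bacteria (~5 × 10^5 CFU/mL, 24 h), MOPS-buffered RPMI 1640 pH 7.0 for fungi (Candida ~2.5 × 10^4, Aspergillus 0.4-5 × 10^4 CFU/mL, 48 h), 35°C, 1% DMSO, 64 to 0.12 μg/mL. MIC read visually; MBC/MFC by plating clear wells.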
(In general: Broth dilution looks for growth in wells or tubes with falling amounts of substance.)

In assay [2] the test system is Pseudomonas aeruginosa ATCC 27853. The assay is described as above. The class given is cell-based. As to conditions: for MIC / MBC: Pseudomonas aeruginosa; for MIC: ATCC27853, 24 h. Summed up: as §1
Assay [3] deals with Staphylococcus aureus ATCC 29213. Described as above. It counts as cell-based. As to conditions: Staphylococcus aureus; for MIC: ATCC29213, 24 h. In short, it runs like this:
as §1

Assay [4] deals with Staphylococcus epidermidis ATCC 14990. Described as above. As to conditions: for MIC / MBC: Staphylococcus epidermidis; for MIC: ATCC14990, 24 h. It counts as cell-based. In short, it runs like this:
as §1

The subject of assay [5] is L. donovani promastigotes. Put plainly: Dose-dependent anti-promastigote activity, IC50 and IC90. It counts as cell-based, Leishmania donovani. As to conditions: Leishmania donovani, 72 h; for IC50: read-out: L. donovani promastigotes IC50 ± SEM; for IC90: read-out: L. donovani promastigotes IC90 ± SEM. As for the experimental part: L. donovani parasites (MHOM/IN/83/AG83) were maintained in vivo in BALB/c mice. Promastigotes were routinely cultured at 22°C in medium M199 supplemented with 10% heat inactivated fetal bovine serum (FBS, HiMedia Laboratories, Mumbai, India), penicillin 100 (IU/ml), streptomycin (100 μg/ml). Log phase promastigotes were sub-cultured every 72–96 h, the inoculum being 2 × 10^6 cells/ml (Afrin et al., [2002]).
AmB was used as a standard antileishmanial drug control. The cell viability was evaluated by microscopically and the mean percentage viability was calculated as follows: Mean cell number of treated parasites / Mean cell number of untreated parasites × 100. The 50 and 90% inhibitory concentration (IC50 and IC90) i.e., the concentration of drugs that decreased the cell growth by 50 and 90% respectively was determined by graphical extrapolation after plotting the graph of % viability vs. concentration of drug (Islamuddin et al., [2014b]).
In vitro antileishmanial activity was expressed as IC50 by linear regression analysis. Values are mean ± SE of samples in triplicate from at least three independent experiments. Statistical analysis was performed using ANOVA followed by Dunnett's test. ^*P < 0.05, ^**P < 0.01 and ^***P < 0.001 compared with the untreated control group were considered significant.

Where [6] appears, read: read-out: MIC, Ec ATCC 25922, broth microdilution, 35°C, 24 h.
Where [7] appears, read: ATCC25922, read-out: MBC, Ec ATCC 25922.
The mark [8] stands for this setting: broth microdilution, 35°C, 24 h.
[9] abbreviates: read-out: MIC, Pa ATCC 27853, broth microdilution, 35°C, 24 h.
[10] abbreviates: ATCC27853, read-out: MBC, Pa ATCC 27853.
Setting [11] is: ATCC29213, read-out: MBC, Sa ATCC 29213.
The mark [12] stands for this setting: read-out: MIC, Se ATCC 14990, broth microdilution, 35°C, 24 h.
The mark [13] stands for this setting: ATCC14990, read-out: MBC, Se ATCC 14990.
Where [14] appears, read: ATCC25922, ≥99.9% reduction of original inoculum, read-out: MBC, Ec ATCC 25922.
Where [15] appears, read: ATCC27853, ≥99.9% reduction of original inoculum, read-out: MBC, Pa ATCC 27853.
Where [16] appears, read: ATCC29213, ≥99.9% reduction of original inoculum, read-out: MBC, Sa ATCC 29213.
Where [17] appears, read: ATCC14990, ≥99.9% reduction of original inoculum, read-out: MBC, Se ATCC 14990.
[18] abbreviates: 22°C, mean from three determinations.

Consider `CC/C(=C\c1ccc([N+](=O)[O-])cc1)[N+](=O)[O-]` [Compound 9, 1-nitro-4-((E)-2-nitrobut-1-enyl) benzene], for which the minimum inhibitory concentration (MIC) in assay [1] (setting [6]) fell in the range of 16 to 32 µg/mL (≈ 72 to 144 µM); in assay [2] (setting [9]), 16 to 32 µg/mL (≈ 72 to 144 µM); in assay [4] (setting [12]), 2 to 16 µg/mL (≈ 9 to 72 µM). The minimum bactericidal concentration (MBC) in assay [1] (setting [7]) is 32 µg/mL (≈ 144 µM); in assay [2] (setting [10]), 32 µg/mL (≈ 144 µM); in assay [3] (setting [11]), 8 µg/mL (≈ 36 µM); in assay [4] (setting [13]), 4 µg/mL (≈ 18 µM). Further, the “MIC, Ec ATCC 25922” value in assay [1] (setting [8]) turned out to be 16 µg/mL (≈ 72 µM). The “MIC, Pa ATCC 27853” value in assay [2] (setting [8]) was 16 µg/mL (≈ 72 µM). Further, in assay [4] (setting [8]), the “MIC, Se ATCC 14990” value was 4 µg/mL (≈ 18 µM). In addition, the IC50 in assay [5] stood at 23.4 ± 0.71 nM. In addition, the concentration for an effect of 90% (IC90) in assay [5] came to 90.2 ± 1.11 nM.
Regarding `CC/C(=C\c1cccc([N+](=O)[O-])c1)[N+](=O)[O-]` [Compound 12, 1-nitro-3-((E)-2-nitrobut-1-enyl) benzene], the MIC was determined as 16 µg/mL (≈ 72 µM) in assay [1] (setting [6]); 16 µg/mL (≈ 72 µM) in assay [2] (setting [9]); 0.5 µg/mL (≈ 2.25 µM) in assay [3] (read-out: MIC, Sa ATCC 29213, broth microdilution, 35°C, 24 h); 0.25 µg/mL (≈ 1.13 µM) in assay [4] (setting [12]). Besides, the minimum bactericidal concentration (MBC) in assay [1] (setting [7]) was determined as 16 µg/mL (≈ 72 µM); in assay [2] (setting [10]) it was 16 µg/mL (≈ 72 µM); in assay [3] (setting [11]) it was 0.5 µg/mL (≈ 2.25 µM); in assay [4] (setting [13]), 0.25 µg/mL (≈ 1.13 µM). In addition, the concentration for half-maximal inhibition (IC50) in assay [5] worked out at 37.8 ± 3.74 nM. Besides, in assay [5], the IC90 stood at 86.46 ± 0.21 nM.
Consider `COc1ccc(/C=C(\C)[N+](=O)[O-])cc1` [Compound 14, 1-methoxy-4-((E)-2-nitroprop-1-enyl) benzene], for which the minimum inhibitory concentration (MIC) is 64 µg/mL (≈ 331 µM) in assay [1] (broth microdilution, 35°C, 24 h, read-out: MIC, Ec ATCC 25922); more than 64 µg/mL in assay [2] (broth microdilution, 35°C, 24 h, read-out: MIC, Pa ATCC 27853); 8 µg/mL (≈ 41.4 µM) in assay [3] (broth microdilution, 35°C, 24 h, read-out: MIC, Sa ATCC 29213); 4 µg/mL (≈ 20.7 µM) in assay [4] (broth microdilution, 35°C, 24 h, read-out: MIC, Se ATCC 14990). Further, the MBC in assay [1] (setting [14]) was more than 64 µg/mL; in assay [2] (setting [15]) it was more than 64 µg/mL; in assay [3] (setting [16]), 8 µg/mL (≈ 41.4 µM); in assay [4] (setting [17]) it was 4 µg/mL (≈ 20.7 µM). Further, the IC50 in assay [5] (setting [18]) was 40.5 ± 1.47 nM. Further, the concentration for an effect of 90% (IC90) in assay [5] (setting [18]) stood at 89 ± 0.52 nM.
On to `CC/C(=C\c1ccc(O)cc1)[N+](=O)[O-]` [Compound 18, 4-((E)-2-nitrobut-1-enyl) phenol], for which the MBC in assay [1] (setting [14]) is more than 64 µg/mL; in assay [2] (setting [15]), more than 64 µg/mL; in assay [3] (setting [16]) it was 16 µg/mL (≈ 82.8 µM); in assay [4] (setting [17]), 8 µg/mL (≈ 41.4 µM). Moreover, the IC50 in assay [5] (setting [18]) is 55.7 ± 2.84 nM. Besides, the 90% effect concentration (IC90) in assay [5] (setting [18]) was determined as 320 ± 3.65 nM.

Broadly, the MIC is the smallest concentration in the dilution series that meets the test's criterion for growth inhibition. For orientation: MBC means the lowest tested concentration that kills the bacteria rather than only halting them. By IC50 is commonly meant the concentration that gives 50% inhibition. One may read the IC90 as the concentration needed for an effect of 90%.
